Consider 23 molecules from patent publication EP0297435A2, “Aminopropanol derivatives of 3-(3'-hydroxyphenyl)-1-propanone, process for their preparation and medicines containing these compounds” (Helopharm W. Petrik GmbH & Co.KG., priority 1987, dated 1989).

For assay [1], the system named is Meerschweinchen-Papillarmuskel. The experiment in a line: Effect on contraction force of the heart, guinea pig papillary muscle. Type of assay: cell-based. To be noted: contraction force (negative inotropy); for IC20: read-out: C20 CF. The text has this:
Die Wirkung auf die Kontraktionskraft des Herzens wurde am Meerschweinchen-Papillarmuskel untersucht. Hämodynamische Studien wurden bei gesunden, wie auch akut infarzierten Hunden durchgeführt.

In assay [2] the test system is Purkinje-Fasern aus Hundeherzen. The assay is described as follows: Electrophysiological studies on Purkinje fibres from dog hearts (Vmax). It counts as cell-based, Hund. The note with it: for C20 Vmax / IC20: Purkinje-Fasern aus Hundeherzen; for Prematurity Faktor Vmax: Vorzeitigkeitsindex, activity on premature extrasystoles; for Rate-Faktor von Vmax: specifically stronger activity at higher frequencies; for IC20: read-out: C20 Vmax. The source says:
Die antiarrhythmische Wirksamkeit der erfindungsgemäßen Verbindungen wurde sowohl anhand von elektrophysiologischen Studien an Purkinje-Fasern aus Hundeherzen sowie mit Hilfe von Ouabaininduzierten ventrikulären Tachykardien bei Hunden bestimmt. […]
Als zusätzliches Kriterium wurde der Vorzeitigkeitsindex (Prematurity-Faktor) bestimmt, der die erwünschte Wirksamkeit der erfindungsgemäßen Verbindungen bei vorzeitigen Extrasystolen charakterisiert.

For `CCCNCC(O)COc1ccccc1C(=O)CCc1ccccc1` (stereo not drawn) [A, Propafenon, reference compound], the “C20 CF” value in assay [1] is on record as 5,3 µM. Moreover, in assay [2], the “C20 Vmax” value is reported as 3,7 µM, the “Prematurity Faktor Vmax” value was 0,97 and the “Rate-Faktor von Vmax” value is reported as 1,08.
As to `CCCNCC(O)COc1cc(CCC(=O)c2ccc3ccccc3c2)ccc1OC.Cl` (stereo not drawn) [Beispiel 48, 1-(2-Napthyl)-3-[3′-(2-hydroxy-3-n-propylaminopropoxy)-4′-methoxyphenyl]-1-propanon-hydrochlorid], the “C20 CF” value in assay [1] is on record as 9,0 µM. For the same molecule, in assay [2], the “C20 Vmax” value was 1,1 µM, the “Prematurity Faktor Vmax” value was 0,90 and the “Rate-Faktor von Vmax” value was 1,43.
Take `Cc1cc(C)c(C(=O)CCc2cccc(OCC(O)CNC(C)(C)C)c2)c(C)c1.Cl` (stereo not drawn) [Beispiel 14, 1-(2,4,6-Trimethylphenyl)-3-[3′-(2-hydroxy-3-tert.-butylaminopropoxy)-phenyl]-1-propanon-hydrochlorid]: in assay [1], the IC20 is 20 µM. Further, in assay [2], the IC20 was determined as 11.9 µM, the “Prematurity Faktor Vmax” value was 0,95 and the “Rate-Faktor von Vmax” value was 1,47.
In the case of `COc1cc(C(=O)CCc2cccc(OCC(O)CNC(C)(C)C)c2)cc(OC)c1OC.Cl` (stereo not drawn) [Beispiel 10, 1-(3,4,5-Trimethoxyphenyl)-3-[3′-(2-hydroxy-3-tert.-butylaminopropoxy)-phenyl]-1-propanon-hydrochlorid], the IC20 in assay [1] stood at 5 µM. In assay [2], the IC20 turned out to be 2.6 µM, the “Prematurity Faktor Vmax” value is on record as 0,99 and the “Rate-Faktor von Vmax” value is given as 1,17.
Take `CCCNCC(O)COc1cccc(CCC(=O)c2ccc(OC)cc2)c1.Cl` (stereo not drawn) [Beispiel 7, 1-(4-Methoxyphenyl)-3-[3′-(2-hydroxy-3-n-propylaminopropoxy)-phenyl]-1-propanon-hydrochlorid]: the IC20 in assay [1] stood at 6 µM. For the same molecule, in assay [2], the IC20 turned out to be 2.9 µM, the “Prematurity Faktor Vmax” value is listed as 0,90 and the “Rate-Faktor von Vmax” value was 1,21.
`COc1ccc(CCC(=O)c2ccccc2OC)cc1OCC(O)CNC(C)(C)C.Cl` (stereo not drawn) [Beispiel 35, 1-(2-Methoxyphenyl)-3-[3′-(2-hydroxy-3-tert.-butylaminopropoxy)-4′-methoxyphenyl]-1-propanon-hydrochlorid]: the IC20 in assay [1] was 10 µM; in assay [2] it was 3 µM. The “Prematurity Faktor Vmax” value in assay [2] was 0,91.
Take `CCCNCC(O)COc1cc(CCC(=O)c2ccc(C)cc2)ccc1OC.Cl` (stereo not drawn) [Beispiel 37, 1-(4-Methylphenyl)-3-[3′-(2-hydroxy-3-n-propylaminopropoxy)-4′-methoxyphenyl]-1-propanon-hydrochlorid]: the IC20 in assay [1] stood at 5 µM. Besides, in assay [2], the IC20 came to 2.6 µM, the “Prematurity Faktor Vmax” value is reported as 0,94 and the “Rate-Faktor von Vmax” value is listed as 1,22.
Turning to `COc1ccc(CCC(=O)c2ccc3ccccc3c2)cc1OCC(O)CNC(C)C.Cl` (stereo not drawn) [Beispiel 49, 1-(2-Naphthyl)-3-[3′-(2-hydroxy-3-isopropylaminopropoxy)-4′-methoxyphenyl]-1-propanon-hydrochlorid], the IC20 in assay [1] was found to be 14 µM. For the same molecule, in assay [2], the IC20 was found to be 12.1 µM, the “Prematurity Faktor Vmax” value is on record as 0,50 and the “Rate-Faktor von Vmax” value is reported as 4,00.
For `CCC(C)(C)NCC(O)COc1cccc(CCC(=O)c2c(C)cc(C)cc2C)c1.Cl` (stereo not drawn) [Beispiel 11, 1-(2,4,6-Trimethylphenyl)-3-[3′-(2-hydroxy-3-tert.-pentylaminopropoxy)-phenyl]-1-propanon-hydrochlorid], in assay [1], the IC20 turned out to be 10 µM. In addition, in assay [2], the IC20 turned out to be 3.3 µM, the “Prematurity Faktor Vmax” value is reported as 0,95 and the “Rate-Faktor von Vmax” value is 1,15.
`COc1ccc(CCC(=O)c2ccc(C)cc2)cc1OCC(O)CNC(C)(C)C.Cl` (stereo not drawn) [Beispiel 39, 1-(4-Methylphenyl)-3-[3′-(2-hydroxy-3-tert.-butylaminopropoxy)-4′-methoxyphenyl]-1-propanon-hydrochlorid]: the IC20 in assay [1] is 4 µM. In addition, in assay [2], the IC20 came out at 1.2 µM, the “Prematurity Faktor Vmax” value is on record as 0,94 and the “Rate-Faktor von Vmax” value is listed as 1,51.
Take `CCC(C)(C)NCC(O)COc1cccc(CCC(=O)c2cc(OC)c(OC)c(OC)c2)c1.Cl` (stereo not drawn) [Beispiel 8, 1-(3,4,5-Trimethoxyphenyl)-3-[3′-(2-hydroxy-3-tert.-pentylaminopropoxy)-phenyl]-1-propanon-hydrochlorid]: the IC20 in assay [1] came out at 3 µM; in assay [2], 1.6 µM. Also, the “Rate-Faktor von Vmax” value in assay [2] is listed as 5,00.
As to `COc1ccc(C(=O)CCc2ccc(OC)c(OCC(O)CNC(C)C)c2)cc1OC.Cl` (stereo not drawn) [Beispiel 23, 1-(3,4-Dimethoxyphenyl)-3-[3′-(2-hydroxy-3-isopropylaminopropoxy)-4′-methoxyphenyl]-1-propanon-hydrochlorid], in assay [1], the IC20 is 6 µM. Also, in assay [2], the IC20 is 2.2 µM, the “Prematurity Faktor Vmax” value is on record as 1,05 and the “Rate-Faktor von Vmax” value was 5,00.
For `CCC(C)(C)NCC(O)COc1cc(CCC(=O)c2ccc(OC)c(OC)c2)ccc1OC.Cl` (stereo not drawn) [Beispiel 27, 1-(3,4-Dimethoxyphenyl)-3-[3′-(2-hydroxy-3-tert.-pentylaminopropoxy)-4′-methoxyphenyl]-1-propanon-hydrochlorid], the IC20 in assay [1] was 15 µM. Moreover, in assay [2], the IC20 amounted to 3.5 µM, the “Prematurity Faktor Vmax” value is reported as 1,05 and the “Rate-Faktor von Vmax” value was 1,25.
For the molecule `CCCNCC(O)COc1cc(CCC(=O)c2c(C)cc(C)cc2C)ccc1OC.O=C(O)C(=O)O` (stereo not drawn) [Beispiel 44, 1-(2,4,6-Trimethylphenyl)-3-[3′-(2-hydroxy-3-n-propylaminopropoxy)-4′-methoxyphenyl]-1-propanon-oxalat], the IC20 in assay [1] was 14 µM. In assay [2], the IC20 was found to be 1.7 µM, the “Prematurity Faktor Vmax” value is 1,10 and the “Rate-Faktor von Vmax” value is listed as 1,03.
`CCCNCC(O)COc1cc(CCC(=O)c2ccc(OC)c(OC)c2)ccc1OC.Cl` (stereo not drawn) [Beispiel 22, 1-(3,4-Dimethoxyphenyl)-3-[3′-(2-hydroxy-3-n-propylaminopropoxy)-4′-methoxyphenyl]-1-propanon-hydrochlorid]: in assay [1], the IC20 turned out to be 7 µM. Further, in assay [2], the IC20 was 3.2 µM, the “Prematurity Faktor Vmax” value was 0,99 and the “Rate-Faktor von Vmax” value is 0,97.
Consider `Cc1cc(C)c(CC(=O)Cc2cccc(OCC(O)CNC(C)(C)C)c2)c(C)c1.Cl` (stereo not drawn) [Beispiel 17, 1-(2,4,6-Trimethylphenyl)-3-[3′-(2-hydroxy-3-tert.-butylaminopropoxy)-phenyl]-propanon-hydrochlorid], for which the IC20 in assay [1] was found to be 15 µM. In addition, in assay [2], the IC20 worked out at 1.7 µM, the “Prematurity Faktor Vmax” value is reported as 0,99 and the “Rate-Faktor von Vmax” value is recorded as 1,12.
With `COc1ccc(CCC(=O)c2cc(OC)c(OC)c(OC)c2)cc1OCC(O)CNC1CCCCC1.Cl` (stereo not drawn) [Beispiel 32, 1-(3,4,5-Trimethoxyphenyl)-3-[3′-(2-hydroxy-3-cyclohexylaminopropoxy)-4′-methoxyphenyl]-1-propanon-hydrochlorid], the IC20 in assay [1] came out at 9 µM. Besides, in assay [2], the IC20 was 1.1 µM, the “Prematurity Faktor Vmax” value is on record as 1,05 and the “Rate-Faktor von Vmax” value is on record as 1,25.
For `Cc1cc(C)c(C(=O)CCc2cccc(OCC(O)CNC(C)C)c2)c(C)c1.Cc1cc(C)c(C(=O)CCc2cccc(OCC(O)CNC(C)C)c2)c(C)c1.O=C(O)C(=O)O` (stereo not drawn) [Beispiel 15, 1-(2,4,6-Trimethylphenyl)-3-[3′-(2-hydroxy-3-isopropylaminopropoxy)-phenyl]-1-propanon-semi-oxalat], the “C20 CF” value in assay [1] was 7,0 µM. In addition, in assay [2], the “C20 Vmax” value is 1,0 µM, the “Prematurity Faktor Vmax” value is reported as 0,94 and the “Rate-Faktor von Vmax” value is on record as 1,09.
Consider `COc1ccc(CCC(=O)c2cc(OC)c(OC)c(OC)c2)cc1OCC(O)CNC(C)C.Cl` (stereo not drawn) [Beispiel 30, 1-(3,4,5-Trimethoxyphenyl)-3-[3′-(2-hydroxy-3-isopropylaminopropoxy)-4′-methoxyphenyl]-1-propanon-hydrochlorid], for which the IC20 in assay [1] was found to be 5 µM. Further, in assay [2], the IC20 turned out to be 2.5 µM, the “Prematurity Faktor Vmax” value is reported as 1,01 and the “Rate-Faktor von Vmax” value is 1,13.
`COc1cc(C(=O)CCc2cccc(OCC(O)CNC(C)C)c2)cc(OC)c1OC.Cl` (stereo not drawn) [Beispiel 9, 1-(3,4,5-Trimethoxyphenyl)-3-[3′-(2-hydroxy-3-isopropylaminopropoxy)-phenyl]-1-propanon-hydrochlorid]: the IC20 in assay [1] is 15 µM. Also, in assay [2], the IC20 came to 9.1 µM, the “Prematurity Faktor Vmax” value was 1,01 and the “Rate-Faktor von Vmax” value was 1,26.
The corresponding values for `COc1ccc(CCC(=O)c2ccc(C)cc2)cc1OCC(O)CN1CCCCC1.Cl` (stereo not drawn) [Beispiel 40, 1-(4-Methylphenyl)-3-[3′-(2-hydroxy-3-piperidinopropoxy)-4′-methoxyphenyl]-1-propanon-hydrochlorid] are 5 µM, 1.3 µM, 0,94 and 1,33.
On to `CCC(C)(C)NCC(O)COc1cc(CCC(=O)c2ccc3ccccc3c2)ccc1OC.Cl` (stereo not drawn) [Beispiel 47, 1-(2-Naphthyl)-3-[3′-(2-hydroxy-3-tert.-pentylaminopropoxy)-4′-methoxyphenyl]-1-propanon-hydrochlorid], for which the IC20 in assay [1] amounted to 17 µM. In assay [2], the IC20 amounted to 6.1 µM, the “Prematurity Faktor Vmax” value is 1,10 and the “Rate-Faktor von Vmax” value was 1,22.
For the molecule `COc1ccc(C(=O)CCc2ccc(OC)c(OCC(O)CNC(C)(C)C)c2)cc1OC.Cl` (stereo not drawn) [Beispiel 25, 1-(3,4-Dimethoxyphenyl)-3-[3′-(2-hydroxy-3-tert.-butylaminopropoxy)-4′-methoxyphenyl]-1-propanon-hydrochlorid], the IC20 in assay [1] amounted to 6 µM. Besides, in assay [2], the IC20 was 2.4 µM, the “Prematurity Faktor Vmax” value is reported as 1,01 and the “Rate-Faktor von Vmax” value is on record as 1,21.
